{"source": "ChEMBL document CHEMBL5233245", "about": "“Monocarboxylate transporter 1 and 4 inhibitors as potential therapeutics for treating solid tumours: A review with structure-activity relationship insights” (Eur J Med Chem, 2020)", "key": {"[1]": {"molecular_target": "T1, Monocarboxylate transporter 1 (Homo sapiens, UniProt P53985)", "T1 sequence (P53985 whole entry)": "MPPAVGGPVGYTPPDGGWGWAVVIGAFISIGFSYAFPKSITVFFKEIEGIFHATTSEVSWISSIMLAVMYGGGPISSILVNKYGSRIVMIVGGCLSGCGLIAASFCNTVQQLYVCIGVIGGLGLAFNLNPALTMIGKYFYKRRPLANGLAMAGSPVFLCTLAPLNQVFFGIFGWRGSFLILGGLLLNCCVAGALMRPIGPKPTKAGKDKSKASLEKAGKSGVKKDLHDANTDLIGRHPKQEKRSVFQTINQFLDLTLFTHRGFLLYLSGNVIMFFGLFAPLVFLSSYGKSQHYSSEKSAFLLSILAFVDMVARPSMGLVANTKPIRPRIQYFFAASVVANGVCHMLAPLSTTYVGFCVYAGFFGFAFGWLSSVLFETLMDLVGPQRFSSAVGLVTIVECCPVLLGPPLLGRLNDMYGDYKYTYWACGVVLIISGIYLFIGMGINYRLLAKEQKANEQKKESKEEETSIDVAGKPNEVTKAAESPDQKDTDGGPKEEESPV", "assay": "Inhibition of MCT1 (unknown origin) assessed as reduction in [14C]lactate uptake incubated for 20 mins by liquid scintillation counting analysis"}, "[2]": {"molecular_target": "T2, Monocarboxylate transporter 1 (Rattus norvegicus, UniProt P53987)", "T2 sequence (P53987 whole entry)": "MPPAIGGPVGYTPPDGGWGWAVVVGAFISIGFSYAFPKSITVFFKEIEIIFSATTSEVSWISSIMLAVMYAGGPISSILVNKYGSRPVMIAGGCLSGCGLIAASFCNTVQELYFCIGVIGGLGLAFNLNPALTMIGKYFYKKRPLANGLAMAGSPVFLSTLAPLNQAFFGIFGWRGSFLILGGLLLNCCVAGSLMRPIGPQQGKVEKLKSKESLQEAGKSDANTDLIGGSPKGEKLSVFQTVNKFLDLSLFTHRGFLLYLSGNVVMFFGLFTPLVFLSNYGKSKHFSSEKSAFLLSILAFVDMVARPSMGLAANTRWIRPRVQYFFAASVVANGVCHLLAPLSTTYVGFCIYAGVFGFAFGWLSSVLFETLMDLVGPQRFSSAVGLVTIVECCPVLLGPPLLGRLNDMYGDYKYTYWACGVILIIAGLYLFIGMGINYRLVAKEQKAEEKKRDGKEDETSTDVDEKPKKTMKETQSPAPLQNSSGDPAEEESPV", "assay": "Inhibition of MCT1 in rat Brain-like endothelial cells incubated for 15 mins in presence of [14C]lactic acid by scintillation counter assay", "assay_type": "cell-based"}, "[3]": {"molecular_target": "T3, Monocarboxylate transporter 2 (Rattus norvegicus, UniProt Q63344)", "T3 sequence (Q63344 whole entry)": "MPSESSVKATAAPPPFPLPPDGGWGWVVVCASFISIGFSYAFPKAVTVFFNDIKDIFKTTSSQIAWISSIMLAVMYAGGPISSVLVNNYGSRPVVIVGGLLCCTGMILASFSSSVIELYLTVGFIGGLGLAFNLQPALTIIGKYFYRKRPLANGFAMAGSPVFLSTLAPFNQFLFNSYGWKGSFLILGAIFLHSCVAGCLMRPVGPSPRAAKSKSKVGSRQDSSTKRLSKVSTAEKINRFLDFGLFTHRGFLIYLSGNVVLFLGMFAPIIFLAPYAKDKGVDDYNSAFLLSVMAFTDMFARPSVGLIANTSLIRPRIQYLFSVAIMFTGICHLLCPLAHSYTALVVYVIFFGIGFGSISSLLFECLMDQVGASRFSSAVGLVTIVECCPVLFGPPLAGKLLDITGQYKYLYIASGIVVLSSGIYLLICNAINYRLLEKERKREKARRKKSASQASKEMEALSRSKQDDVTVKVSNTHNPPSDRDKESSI", "assay": "Binding affinity to MCT2 in rat Erythrocyte assessed as inhibition constant", "assay_type": "cell-based"}, "[4]": {"molecular_target": "T2, Monocarboxylate transporter 1", "assay": "Binding affinity to MCT1 in rat Erythrocyte assessed as inhibition constant", "assay_type": "cell-based"}, "Raji [5]": {"system": "Raji", "assay": "Cytotoxicity against human Raji cells assessed as inhibition of cell growth by MTT assay", "assay_type": "functional, cell-based"}, "[6]": {"molecular_target": "T2, Monocarboxylate transporter 1", "assay": "Inhibition of MCT1 in rat Brain-like endothelial cells incubated for 15 mins in presence of [14C]lactate by […]", "assay_type": "cell-based"}, "MDA-MB-231": {"system": "MDA-MB-231", "assay": "Cytotoxicity against human MDA-MB-231 cells assessed as inhibition of cell growth", "assay_type": "functional, cell-based"}, "Mus musculus": {"system": "Mus musculus", "assay": "Antitumor activity against human WiDr cells xenografted in CD-1 mouse assessed as reduction in tumor growth at 25 mg/kg,ip qd measured after 16 days", "assay_type": "functional", "set-up": "scale not given: the % may be the effect or the level left", "conditions": "time 16 day"}, "Raji [7]": {"system": "Raji", "assay": "Antiproliferative activity against human Raji cells assessed as inhibition of cell growth by MTT assay", "assay_type": "functional, cell-based"}, "[8]": {"molecular_target": "T1, Monocarboxylate transporter 1", "assay": "Binding affinity to MCT1 (unknown origin) assessed as inhibition constant"}, "[9]": {"molecular_target": "T4, Monocarboxylate transporter 4 (Homo sapiens, UniProt O15427)", "T4 sequence (O15427 whole entry)": "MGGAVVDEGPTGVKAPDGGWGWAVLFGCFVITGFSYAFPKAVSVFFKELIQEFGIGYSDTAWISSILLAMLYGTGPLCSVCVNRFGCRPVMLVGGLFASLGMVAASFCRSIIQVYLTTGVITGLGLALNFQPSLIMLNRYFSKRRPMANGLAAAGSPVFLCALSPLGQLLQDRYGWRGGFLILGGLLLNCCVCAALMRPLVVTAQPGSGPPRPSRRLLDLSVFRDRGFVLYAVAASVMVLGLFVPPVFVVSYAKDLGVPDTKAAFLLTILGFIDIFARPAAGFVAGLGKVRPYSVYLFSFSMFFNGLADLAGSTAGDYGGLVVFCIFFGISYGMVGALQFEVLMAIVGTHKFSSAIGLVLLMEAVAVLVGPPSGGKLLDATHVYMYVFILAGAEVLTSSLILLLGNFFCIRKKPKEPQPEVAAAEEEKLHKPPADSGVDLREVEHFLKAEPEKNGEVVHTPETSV", "assay": "Binding affinity to human MCT4 expressed in Xenopus laevis oocytes assessed as inhibition constant in presence of [14C]lactate by fluorescence assay"}, "[10]": {"molecular_target": "T4, Monocarboxylate transporter 4", "assay": "Inhibition of MCT4 (unknown origin)"}, "[11]": {"molecular_target": "T1, Monocarboxylate transporter 1", "assay": "Inhibition of MCT1 (unknown origin)"}}, "data": [{"smiles": "COc1cc(N(CC(C)C)CC(C)C)ccc1/C=C(\\C#N)C(=O)O", "values": [{"measurement": "IC50", "setting": "[1]", "value": 11, "unit": "nM"}]}, {"smiles": "CCCCCN(CCCCC)c1ccc(/C=C(\\C#N)C(=O)O)c(OC)c1", "values": [{"measurement": "IC50", "setting": "[1]", "value": 34, "unit": "nM"}]}, {"smiles": "COc1cc(N2CCCC2)ccc1/C=C(\\C#N)C(=O)O", "values": [{"measurement": "IC50", "setting": "[1]", "value": 48, "unit": "nM"}]}, {"smiles": "COc1cc(N2CCCCC2)ccc1/C=C(\\C#N)C(=O)O", "values": [{"measurement": "IC50", "setting": "[1]", "value": 25, "unit": "nM"}]}, {"smiles": "COc1cc(N(Cc2ccccc2)Cc2ccccc2)ccc1/C=C(\\C#N)C(=O)O", "values": [{"measurement": "IC50", "setting": "[1]", "value": 37, "unit": "nM"}]}, {"smiles": "N#C/C(=C\\c1cn(-c2ccccc2)c2ccccc12)C(=O)O", "values": [{"measurement": "IC50", "setting": "[2]", "value": 12.8, "unit": "nM"}]}, {"smiles": "N#C/C(=C\\c1cn(Cc2ccccc2)c2ccccc12)C(=O)O", "values": [{"measurement": "IC50", "setting": "[2]", "value": 65.9, "unit": "nM"}]}, {"smiles": "Cc1n[nH]c(C)c1Cc1sc2c(c1C(=O)N1C[C@@H](O)CO1)c(=O)n(C)c(=O)n2CC(C)C", "values": [{"measurement": "Ki", "setting": "[3]", "value": "< 10", "unit": "nM"}, {"measurement": "Ki", "setting": "[4]", "value": 2, "unit": "nM"}]}, {"smiles": "CC(C)c1cc(=O)c2c(OCCCO)cc(OCc3ccc4ccccc4c3)cc2o1", "values": [{"measurement": "EC50", "setting": "Raji [5]", "value": 100, "unit": "nM"}]}, {"smiles": "N#C/C(=C\\c1ccc(OCCBr)cc1)C(=O)O", "values": [{"measurement": "IC50", "setting": "[6]", "value": "> 5000", "unit": "nM"}]}, {"smiles": "Cc1cc(=O)c2c(OCCCO)cc(OCc3ccc4ccccc4c3)cc2o1", "values": [{"measurement": "EC50", "setting": "Raji [5]", "value": 1000, "unit": "nM"}]}, {"smiles": "COC(=O)[C@@](O)(CO)COC(=O)c1nn(-c2ccc(N(Cc3ccccc3)Cc3ccccc3)cc2)c2ccccc12", "values": [{"measurement": "IC50", "setting": "MDA-MB-231", "value": 2330, "unit": "nM"}]}, {"smiles": "CC(C)(C)[Si](OCCOc1ccc(/C=C(\\C#N)C(=O)O)cc1)(c1ccccc1)c1ccccc1", "values": [{"measurement": "Activity", "setting": "Mus musculus", "value": 28, "unit": "%"}]}, {"smiles": "N#C/C(=C\\c1ccc(OCCO)cc1)C(=O)O", "values": [{"measurement": "IC50", "setting": "[6]", "value": "> 5000", "unit": "nM"}]}, {"smiles": "CC(C)c1cc(=O)c2c(OCc3ccccc3CO)cc(OCc3ccc4ccccc4c3)cc2o1", "values": [{"measurement": "EC50", "setting": "Raji [5]", "value": "> 100000", "unit": "nM"}]}, {"smiles": "N#C/C(=C\\c1cn(-c2ccccn2)c2ccccc12)C(=O)O", "values": [{"measurement": "IC50", "setting": "[2]", "value": "> 1000", "unit": "nM"}]}, {"smiles": "CC(C)Cn1c(=O)n(C)c(=O)c2nc(CCCCCO)c(COc3ccc4ccccc4c3)nc21", "values": [{"measurement": "EC50", "setting": "Raji [7]", "value": "< 50", "unit": "nM"}]}, {"smiles": "CC(C)(C)[Si](Oc1ccc(/C=C(\\C#N)C(=O)O)cc1)(c1ccccc1)c1ccccc1", "values": [{"measurement": "Activity", "setting": "Mus musculus", "value": 28, "unit": "%"}]}, {"smiles": "COC(=O)[C@@](O)(CO)COC(=O)c1nn(-c2ccc(N(Cc3ccc(F)cc3)Cc3ccc(F)cc3)cc2)c2ccccc12", "values": [{"measurement": "IC50", "setting": "MDA-MB-231", "value": 3020, "unit": "nM"}]}, {"smiles": "Cc1[nH]nc(C(F)(F)F)c1Cc1sc2c(c1C(=O)N1C[C@](C)(O)CO1)c(=O)n(C)c(=O)n2C(C)C", "note": "[AZD3965]", "values": [{"measurement": "Ki", "setting": "[8]", "value": 2, "unit": "nM"}]}, {"smiles": "CC(C)(OCc1nn(Cc2ccccc2)c2ccccc12)C(=O)O", "note": "[BINDARIT]", "values": [{"measurement": "Ki", "setting": "[9]", "value": 30200, "unit": "nM"}]}, {"smiles": "N#C/C(=C\\c1ccc(O)cc1)C(=O)O", "note": "[alpha-CYANO-4-HYDROXYCINNAMIC ACID]", "values": [{"measurement": "IC50", "setting": "[10]", "value": "> 150000", "unit": "nM"}, {"measurement": "IC50", "setting": "[11]", "value": 100000, "unit": "nM"}]}]}
